This is an account of results in ChEMBL document CHEMBL4808207, “Macrocyclic Peptides as a Novel Class of NNMT Inhibitors: A SAR Study Aimed at Inhibitory Activity in the Cell” (ACS Med Chem Lett, 2021).

Broadly, the pIC50 is −log10 of the IC50, conventionally taken in molar units.

pIC50: −log10 of the molar value. Numbered stars: 1 amine (or outer) side, 2 acyl side, 3 side chain; on linkers, the order of the positions; unused ones are H or OH. Bridge positions count the residues as written; N and C are the ends. Square brackets hold non-standard residues; d marks the D form. Peptide text beside a SMILES is read from it. Pro(trans-4-Ph) = O=C(O)[C@@H]1C[C@@H](c2ccccc2)CN1; Pro(cis-4-CF3) = O=C(O)[C@@H]1C[C@H](C(F)(F)F)CN1; X1 = O=C([C@@H]1C[C@@H](C(F)(F)F)CN1[*:1])[*:2]; Phe(4-CONH2) = NC(=O)c1ccc(C[C@H](N)C(=O)O)cc1; Bip = N[C@@H](Cc1ccc(-c2ccccc2)cc1)C(=O)O; Pro(4,4-F2) = O=C(O)[C@@H]1CC(F)(F)CN1; Lys(Me2) = CN(C)CCCC[C@H](N)C(=O)O; NMeR = CN[C@@H](CCCNC(=N)N)C(=O)O; NMeF = CN[C@@H](Cc1ccccc1)C(=O)O; tBuAla = CC(C)(C)C[C@H](N)C(=O)O; Tic = O=C(O)[C@@H]1Cc2ccccc2CN1; hLys = NCCCCC[C@H](N)C(=O)O; NMeC = CN[C@@H](CS)C(=O)O

The target of this assay is T1, Nicotinamide N-methyltransferase (Mus musculus, UniProt O55239).
T1 sequence (O55239 whole entry): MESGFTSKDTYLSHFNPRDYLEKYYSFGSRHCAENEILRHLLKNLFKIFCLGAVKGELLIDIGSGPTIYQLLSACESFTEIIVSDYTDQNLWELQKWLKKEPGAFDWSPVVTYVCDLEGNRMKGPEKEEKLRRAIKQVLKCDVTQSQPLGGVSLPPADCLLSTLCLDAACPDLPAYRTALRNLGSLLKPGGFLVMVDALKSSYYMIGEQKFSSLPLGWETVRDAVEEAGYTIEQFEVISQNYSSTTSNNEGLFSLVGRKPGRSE
The assay can be described thus: Inhibition of mouse recombinant NNMT using nicotinamide and SAM as substrate assessed as reduction in 1-methyl-nicotinamide formation incubated for 22 to 24 hrs by RapidFire Mass spectroscopy.
For the compound `CC(C)C[C@@H]1NC(=O)[C@@H]2C[C@H](C(F)(F)F)CN2C(=O)[C@H](Cc2ccccc2)NC(=O)CSC[C@@H](C(N)=O)NC(=O)[C@H](Cc2ccc(C(N)=O)cc2)NC(=O)[C@@H]2Cc3ccccc3CN2C(=O)[C@@H]2CCCN2C(=O)[C@H](CCCCN)NC1=O` ({CH2CO}-F[Pro(cis-4-CF3)]LKP[Tic][Phe(4-CONH2)]C-NH2; thioether N-8), the pIC50 is 6.67.
For the compound `CC(C)C[C@@H]1NC(=O)[C@@H]2CCCN2C(=O)[C@H](Cc2ccccc2)N(C)C(=O)CSC[C@@H](C(N)=O)NC(=O)[C@H](Cc2ccc(C(N)=O)cc2)NC(=O)[C@@H]2Cc3ccccc3CN2C(=O)[C@@H]2CCCN2C(=O)[C@H](CCCCCN)NC1=O` ({CH2CO}-[NMeF]PL[hLys]P[Tic][Phe(4-CONH2)]C-NH2; thioether N-8), the pIC50 was 8.89.
Regarding `CC(C)C[C@@H]1NC(=O)[C@@H]2CCCN2C(=O)[C@H](Cc2ccccc2)NC(=O)CSC[C@@H](C(N)=O)NC(=O)[C@H](Cc2ccc(-c3ccccc3)cc2)NC(=O)[C@@H]2Cc3ccccc3CN2C(=O)[C@@H]2CCCN2C(=O)[C@H](CCCCN)NC1=O` ({CH2CO}-FPLKP[Tic][Bip]C-NH2; thioether N-8), the pIC50 is 7.14.
The same measure for `CC(C)C[C@@H]1NC(=O)[C@@H]2C[C@@H](c3ccccc3)CN2C(=O)[C@H](Cc2ccccc2)NC(=O)CSC[C@@H](C(N)=O)NC(=O)[C@H](Cc2ccc(C(N)=O)cc2)NC(=O)[C@@H]2Cc3ccccc3CN2C(=O)[C@@H]2CCCN2C(=O)[C@H](CCCCN)NC1=O` ({CH2CO}-F[Pro(trans-4-Ph)]LKP[Tic][Phe(4-CONH2)]C-NH2; thioether N-8): 8.92.
Turning to `CC(C)C[C@@H]1NC(=O)[C@@H]2CCCN2C(=O)[C@H](Cc2ccccc2)N(C)C(=O)CSC[C@@H](C(N)=O)NC(=O)[C@H](Cc2ccc(C(N)=O)cc2)NC(=O)[C@@H]2Cc3ccccc3CN2C(=O)[C@@H]2CCCN2C(=O)[C@H](CCCNC(=N)N)NC1=O` ({CH2CO}-[NMeF]PLRP[Tic][Phe(4-CONH2)]C-NH2; thioether N-8), the pIC50 is 7.02.
As to `CC(C)C[C@@H]1NC(=O)[C@@H]2C[C@@H](C(F)(F)F)CN2C(=O)[C@H](Cc2ccccc2)NC(=O)CSC[C@@H](C(N)=O)NC(=O)[C@H](Cc2ccc(C(N)=O)cc2)NC(=O)[C@@H]2Cc3ccccc3CN2C(=O)[C@@H]2CCCN2C(=O)[C@H](CCCCN)NC1=O` ({CH2CO}-F[X1]LKP[Tic][Phe(4-CONH2)]C-NH2; thioether N-8), the pIC50 was 7.74.
On to `CN1C(=O)CSC[C@@H](C(N)=O)NC(=O)[C@H](Cc2ccc(C(N)=O)cc2)NC(=O)[C@@H]2Cc3ccccc3CN2C(=O)[C@@H]2CCCN2C(=O)[C@H](CCCCN)NC(=O)[C@H](CC(C)(C)C)NC(=O)[C@@H]2CCCN2C(=O)[C@@H]1Cc1ccccc1` ({CH2CO}-[NMeF]P[tBuAla]KP[Tic][Phe(4-CONH2)]C-NH2; thioether N-8), for which the pIC50 was 7.64.
To `CN1C(=O)[C@H](Cc2ccc(C(N)=O)cc2)NC(=O)[C@@H]2Cc3ccccc3CN2C(=O)[C@@H]2CCCN2C(=O)[C@H](CCCNC(=N)N)NC(=O)[C@H](Cc2ccc(O)cc2)NC(=O)[C@@H]2CCCN2C(=O)[C@H](Cc2ccccc2)NC(=O)CSC[C@H]1C(N)=O` ({CH2CO}-FPYRP[Tic][Phe(4-CONH2)][NMeC]-NH2; thioether N-8) belongs 5.10; to `CC(C)C[C@@H]1NC(=O)[C@@H]2CCCN2C(=O)[C@H](Cc2ccccc2)NC(=O)CSC[C@@H](C(N)=O)NC(=O)[C@H](Cc2ccc(C(N)=O)cc2)NC(=O)[C@@H]2Cc3ccccc3CN2C(=O)[C@@H]2CCCN2C(=O)[C@H](CCCCN)NC1=O` ({CH2CO}-FPLKP[Tic][Phe(4-CONH2)]C-NH2; thioether N-8), 7.40; to `CN1C(=O)CSC[C@@H](C(N)=O)NC(=O)[C@H](Cc2ccc(C(N)=O)cc2)NC(=O)[C@@H]2Cc3ccccc3CN2C(=O)[C@@H]2CCCN2C(=O)[C@H](CCCCN)NC(=O)[C@H](Cc2ccc(O)cc2)NC(=O)[C@@H]2CCCN2C(=O)[C@@H]1Cc1ccccc1` ({CH2CO}-[NMeF]PYKP[Tic][Phe(4-CONH2)]C-NH2; thioether N-8), 6.73.
For the compound `CN1C(=O)CSC[C@@H](C(N)=O)NC(=O)[C@H](Cc2ccc(C(N)=O)cc2)NC(=O)[C@@H]2Cc3ccccc3CN2C(=O)[C@@H]2CCCN2C(=O)[C@H](CCCNC(=N)N)NC(=O)[C@H](Cc2ccc(O)cc2)NC(=O)[C@@H]2CCCN2C(=O)[C@@H]1Cc1ccccc1` ({CH2CO}-[NMeF]PYRP[Tic][Phe(4-CONH2)]C-NH2; thioether N-8), the negative logarithm of the IC50 (pIC50) is 6.66.
Regarding `CC(C)C[C@@H]1NC(=O)[C@@H]2CCCN2C(=O)[C@H](Cc2ccccc2)NC(=O)CSC[C@@H](C(N)=O)NC(=O)[C@H](Cc2ccc(C(N)=O)cc2)NC(=O)[C@@H]2Cc3ccccc3CN2C(=O)[C@@H]2C[C@@H](C(F)(F)F)CN2C(=O)[C@H](CCCCN)NC1=O` ({CH2CO}-FPLK[X1][Tic][Phe(4-CONH2)]C-NH2; thioether N-8), the pIC50 is 6.58.
The same measure for `CC(C)C[C@@H]1NC(=O)[C@@H]2CCCN2C(=O)[C@H](Cc2ccccc2)NC(=O)CSC[C@@H](C(N)=O)NC(=O)[C@H](Cc2ccc(C(N)=O)cc2)NC(=O)[C@@H]2Cc3ccccc3CN2C(=O)[C@@H]2CC(F)(F)CN2C(=O)[C@H](CCCCN)NC1=O` ({CH2CO}-FPLK[Pro(4,4-F2)][Tic][Phe(4-CONH2)]C-NH2; thioether N-8): 7.89; for `CN1C(=O)CSC[C@@H](C(N)=O)NC(=O)[C@H](Cc2ccc(C(N)=O)cc2)NC(=O)[C@@H]2Cc3ccccc3CN2C(=O)[C@@H]2CCCN2C(=O)[C@H](CCCNC(=N)N)NC(=O)[C@H](Cc2ccccc2)NC(=O)[C@@H]2CCCN2C(=O)[C@@H]1Cc1ccccc1` ({CH2CO}-[NMeF]PFRP[Tic][Phe(4-CONH2)]C-NH2; thioether N-8): 6.60.
For the compound `CN(C)CCCC[C@@H]1NC(=O)[C@H](Cc2ccc(O)cc2)NC(=O)[C@@H]2CCCN2C(=O)[C@H](Cc2ccccc2)N(C)C(=O)CSC[C@@H](C(N)=O)NC(=O)[C@H](Cc2ccc(C(N)=O)cc2)NC(=O)[C@@H]2Cc3ccccc3CN2C(=O)[C@@H]2CCCN2C1=O` ({CH2CO}-[NMeF]PY[Lys(Me2)]P[Tic][Phe(4-CONH2)]C-NH2; thioether N-8), the pIC50 is 5.87.
The same measure for `CC(C)C[C@@H]1NC(=O)[C@@H]2CC(F)(F)CN2C(=O)[C@H](Cc2ccccc2)NC(=O)CSC[C@@H](C(N)=O)NC(=O)[C@H](Cc2ccc(C(N)=O)cc2)NC(=O)[C@@H]2Cc3ccccc3CN2C(=O)[C@@H]2CCCN2C(=O)[C@H](CCCCN)NC1=O` ({CH2CO}-F[Pro(4,4-F2)]LKP[Tic][Phe(4-CONH2)]C-NH2; thioether N-8): 7.74; for `CC(C)C[C@@H]1NC(=O)[C@@H]2CCCN2C(=O)[C@H](Cc2ccccc2)NC(=O)CSC[C@@H](C(N)=O)NC(=O)[C@H](Cc2ccc(C(N)=O)cc2)NC(=O)[C@@H]2Cc3ccccc3CN2C(=O)[C@@H]2C[C@H](C(F)(F)F)CN2C(=O)[C@H](CCCCN)NC1=O` ({CH2CO}-FPLK[Pro(cis-4-CF3)][Tic][Phe(4-CONH2)]C-NH2; thioether N-8): 5.87.
To `CN1C(=O)[C@H](Cc2ccc(O)cc2)NC(=O)[C@@H]2CCCN2C(=O)[C@H](Cc2ccccc2)NC(=O)CSC[C@@H](C(N)=O)NC(=O)[C@H](Cc2ccc(C(N)=O)cc2)NC(=O)[C@@H]2Cc3ccccc3CN2C(=O)[C@@H]2CCCN2C(=O)[C@@H]1CCCNC(=N)N` ({CH2CO}-FPY[NMeR]P[Tic][Phe(4-CONH2)]C-NH2; thioether N-8) belongs 6.56.
